Results published in patent US20240279298A1 (BEIJING TUO JIE BIOPHARMACEUTICAL CO. LTD., priority 2021, published 2024).
Where a SMILES comes first, the peptide text is derived from it. [ ]: non-standard residue; d: D form. Aib = CC(C)(N)C(=O)O

Columns and labels:
[1] = tested on: rat erythrocyte suspension; assay: Hemolysis assay; settings: for Hemolysis rate: 37° C., 1 hour
[2] = Chemical stability in phosphate buffer (UPLC purity); format: physicochemical; settings: phosphate buffer pH 7.4, 1 mg/mL
[3] = tested on: human liver microsomes; assay: Stability in human liver microsome incubation system
[4] = in vitro; settings: human
[5] = tested on: normal rats (blood glucose); assay: Efficacy in normoglycemic rat model; format: in vivo, SD rats; settings: normal rats, 2 nmol/kg subcutaneous single dose
[6] = tested on: insulin-induced hypoglycemia rat model; assay: Efficacy in insulin-induced hypoglycemic rat model; format: in vivo, SD rats; settings: insulin 0.65 IU/kg at T0; 12 nmol/kg subcutaneous at 45 min
[7] = Maximum solubility in phosphate buffer pH 7.4; format: physicochemical; settings: phosphate buffer pH 7.4, room temperature
[8] = tested on: human kidney microsomes; assay: Stability in human kidney microsome incubation system
[9] = in vitro; settings: human; remark: listed apart in the source
[10] = Pharmacokinetics in rats after subcutaneous injection; format: in vivo, SD rats; settings: plasma
Method: (1) Animals were grouped according to Table 12, and were given free access to water and food before administration.
• Sampling time: 0 min pre-dose, and 2 min, 4 min, 7 min, 10 min, 20 min, 40 min, 1 h and 2 h post-dose. Blood was collected from rats by jugular catheterization.
• 1) 0.2 mL of whole blood was collected at each time point into a centrifuge tube containing EDTA-K2; • 2) The blood samples were centrifuged at 4000 g at 4° C. for 5 min, and separated to give the plasma; • 3) The plasma samples were cryopreserved at −80° C.
The mixture was vortexed for 5 min and centrifuged at a low temperature for 10 min. 100 μL of the supernatant was taken and added to 100 μL of 0.1% formic acid aqueous solution. The mixture was mixed well, and loaded on the instrument for analysis; • Liquid chromatography and mass spectrometry analysis: LC-30A liquid chromatography system (Shimadzu, Japan) and API 5500 liquid chromatography-triple quadrupole mass spectrometer (Analyst Software data processing system, AB Sciex, USA) were used. The chromatographic column was nanomicro Unisil C18aq (4.6 mm×150 mm, 5 μm) chromatographic column; the column temperature was 40° C.; the mobile phase A was 0.1% formic acid aqueous solution, and the mobile phase B was 0.1% formic acid in acetonitrile; the flow rate was 0.5 mL/min; the injection volume was 20 μL; the gradient is shown in Table 13 below. The mass spectrum was obtained using an electrospray ionization (ESI) source, a positive ion analysis mode and a multi reaction monitoring (MRM) scanning mode.
The plasma concentration of the test compounds was measured by HPLC-MS/MS. The plasma concentration-time curve was plotted, and the pharmacokinetic parameters were calculated by PKSolver.

[11] = target: T1, human GIPR (Homo sapiens, UniProt P48546); assay: Agonist activity assay for GIPR (cAMP HTRF); format: cell-based
T1 construct: expressed in transfected cells
T1 sequence (P48546 22-466): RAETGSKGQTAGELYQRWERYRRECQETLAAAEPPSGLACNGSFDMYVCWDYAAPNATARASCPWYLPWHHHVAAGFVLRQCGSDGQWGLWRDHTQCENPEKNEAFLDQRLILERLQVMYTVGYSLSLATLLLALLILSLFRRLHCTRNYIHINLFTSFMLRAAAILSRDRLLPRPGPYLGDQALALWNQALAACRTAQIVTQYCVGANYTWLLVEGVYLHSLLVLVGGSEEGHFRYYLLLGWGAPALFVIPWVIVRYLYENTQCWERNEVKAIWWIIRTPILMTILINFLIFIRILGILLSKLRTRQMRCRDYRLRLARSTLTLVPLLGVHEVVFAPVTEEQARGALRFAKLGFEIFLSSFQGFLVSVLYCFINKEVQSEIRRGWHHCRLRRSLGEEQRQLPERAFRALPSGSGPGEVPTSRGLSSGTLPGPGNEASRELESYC
Method: (§1) The activation of GCGR by related compounds will stimulate the formation of cyclic adenosine monophosphate (cAMP) in cells. Thus, the receptor activity can be monitored by cAMP production in proper cells expressing the receptor.
(§2) Agonist activity assay for GCGR: Cryopreserved stable CHO-K1/GCGR/CRE-Luc cells were taken from a liquid nitrogen tank, thawed in a 37° C. water bath, resuspended in DMEM/F12 medium (Sigma Cat #D8437), centrifuged, and seeded into T75 culture flasks. The cells were passaged at least once for subsequent tests. Before testing, the cells were trypsinized, centrifuged, washed once, and resuspended in serum-free DMEM/F12 medium. The cell density was adjusted, and the cells were plated in a 96-well plate at a density of 2,500 cells/5 μL/well. A 1×buffer solution in Cisbio-cAMP-Gs Dynamic kit was prepared, and IBMX was added at a final concentration of 0.5 mM. 5 μL of polypeptide serially diluted by buffer was added into each well, and the plate was shaken gently for mixing and incubated for 30 minutes at 37° C. cAMP-d2 and Anti-cAMP-Eu^3+-Cryptate were 20-fold diluted with cAMP Lysis and detection buffer respectively and mixed well. 5 μL of diluted cAMP-d2 solution and 5 μL of diluted Anti-cAMP-Eu^3+-Cryptate solution were sequentially added into each well. The mixture was mixed well by moderate vibration, and incubated for 1 hour at room temperature away from light.
Agonist activity assay for GIPR: The method differed from the method described above for the agonist activity assay for GCGR in that a stable CHO-K1/GIPR cell line was used, and the cell density was 3,000 cells/5 μL/well.

[12] = target: T2, human glucagon receptor (GCGR) (Homo sapiens, UniProt P47871); assay: Agonist activity assay for GCGR (cAMP HTRF); format: cell-based; settings: normalized by the activity of the native glucagon
T2 construct: expressed in transfected cells
T2 sequence (P47871 26-477): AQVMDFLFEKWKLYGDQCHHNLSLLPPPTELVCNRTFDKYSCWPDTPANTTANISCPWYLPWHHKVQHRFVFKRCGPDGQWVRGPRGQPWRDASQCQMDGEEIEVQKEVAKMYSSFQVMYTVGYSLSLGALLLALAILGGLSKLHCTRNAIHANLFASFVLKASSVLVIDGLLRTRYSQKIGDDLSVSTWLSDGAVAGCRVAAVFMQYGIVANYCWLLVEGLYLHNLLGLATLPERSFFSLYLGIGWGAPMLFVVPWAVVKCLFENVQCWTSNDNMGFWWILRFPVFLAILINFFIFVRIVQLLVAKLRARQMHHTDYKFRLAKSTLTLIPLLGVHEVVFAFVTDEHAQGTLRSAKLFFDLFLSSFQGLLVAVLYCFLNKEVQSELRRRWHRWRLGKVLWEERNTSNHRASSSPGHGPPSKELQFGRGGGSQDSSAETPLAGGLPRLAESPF
Method: The activation of GCGR by related compounds will stimulate the formation of cyclic adenosine monophosphate (cAMP) in cells. Thus, the receptor activity can be monitored by cAMP production in proper cells expressing the receptor. […] The cells were passaged at least once for subsequent tests. Before testing, the cells were trypsinized, centrifuged, washed once, and resuspended in serum-free DMEM/F12 medium. The cell density was adjusted, and the cells were plated in a 96-well plate at a density of 2,500 cells/5 μL/well. […] The mixture was mixed well by moderate vibration, and incubated for 1 hour at room temperature away from light.

[13] = target: T3, human GLP-1R (Homo sapiens, UniProt P43220); assay: Agonist activity assay for GLP-1R (cAMP HTRF); format: cell-based
T3 construct: expressed in transfected cells
T3 sequence (P43220 24-463): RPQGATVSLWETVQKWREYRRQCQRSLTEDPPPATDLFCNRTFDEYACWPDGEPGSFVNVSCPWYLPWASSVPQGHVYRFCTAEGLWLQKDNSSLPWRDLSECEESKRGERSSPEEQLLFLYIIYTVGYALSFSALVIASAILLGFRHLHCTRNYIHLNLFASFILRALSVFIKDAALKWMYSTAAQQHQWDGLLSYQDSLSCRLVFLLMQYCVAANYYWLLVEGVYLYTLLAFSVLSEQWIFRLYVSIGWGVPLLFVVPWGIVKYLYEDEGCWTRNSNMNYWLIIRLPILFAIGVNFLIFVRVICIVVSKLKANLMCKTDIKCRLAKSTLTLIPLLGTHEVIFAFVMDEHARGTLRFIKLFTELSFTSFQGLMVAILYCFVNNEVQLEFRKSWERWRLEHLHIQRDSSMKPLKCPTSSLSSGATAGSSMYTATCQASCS
Method: as §1, §2
Agonist activity assay for GLP-1R: The method differed from the method described above for the agonist activity assay for GCGR in that a stable CHO-GLP-1R cell line was used.

Compound `CC(C)C[C@H](NC(=O)[C@H](Cc1c[nH]c2ccccc12)NC(=O)[C@H](CCCCN)NC(=O)[C@@H](NC(=O)[C@H](Cc1ccccc1)NC(=O)[C@H](CCC(=O)O)NC(=O)[C@H](CCC(=O)O)NC(=O)[C@H](C)NC(=O)[C@H](CCCNC(=N)N)NC(=O)[C@H](C)NC(=O)C(C)(C)NC(=O)[C@H](CC(=O)O)NC(=O)[C@H](CC(C)C)NC(=O)[C@H](Cc1ccc(O)cc1)NC(=O)[C@H](CCCCN)NC(=O)[C@H](CO)NC(=O)[C@H](Cc1ccc(O)cc1)NC(=O)[C@H](CC(=O)O)NC(=O)[C@H](CO)NC(=O)[C@@H](NC(=O)[C@H](Cc1ccccc1)NC(=O)[C@@H](NC(=O)CNC(=O)[C@H](CCC(N)=O)NC(=O)[C@H](CO)NC(=O)[C@@H](N)Cc1c[nH]cn1)[C@@H](C)O)[C@@H](C)O)C(C)C)C(=O)N[C@@H](CCC(=O)O)C(=O)N[C@@H](CO)C(=O)N[C@H](C(=O)O)[C@@H](C)O` [Dasiglucagon, reference compound] has a Hemolysis rate ([1]; 1 μg/mL) of −4.69%, a Hemolysis rate ([1]; 3 μg/mL) of −4.77% and a Hemolysis rate ([1]; 10 μg/mL) of −4.05%. The Hemolysis rate ([1]; 30 μg/mL) was −5.23%, the Hemolysis rate ([1]; 100 μg/mL) was −5.52% and the Hemolysis rate ([1]; 300 μg/mL) was −4.63%. For the same compound, the “Hemolysis risk (in words)” value ([1]; concentrations ranging from 1 to 300 μg/mL) was “no significant risk of the hemolysis adverse effect was found”, the “Purity Day 7” value ([2]; 4° C.) was 98.66% and the “Purity Day 14” value ([2]; 4° C.) was 98.84%. For the same compound, the “Purity Day 21” value ([2]; 4° C.) was 99.85%, the “Purity Day 28” value ([2]; 4° C.) was 99.68% and the “Purity Day 7” value ([2]; 25° C.) was 98.07%. The “Purity Day 14” value ([2]; 25° C.) was 96.73%, the “Purity Day 21” value ([2]; 25° C.) was 96.68% and the “Purity Day 28” value ([2]; 25° C.) was 96.81%. The “Purity Day 0” value ([2]; day 0 (normalization)) was 100.00%, the “Percentage residues 0 min” value ([3]; With NADPH) was 100.0% and the “Percentage residues 0 min” value ([3]; Without NADPH) was 100.0%. The “Percentage residues 15 min” value ([3]; Without NADPH) was 91.65%, the “Percentage residues 30 min” value ([3]; Without NADPH) was 88.78% and the “Percentage residues 60 min” value ([3]; Without NADPH) was 71.74%. For the same compound, the “Percentage residues 120 min” value ([3]; Without NADPH) was 53.48%, the T½ ([3]; Without NADPH, 1 μM) was 125.37 min and the remaining at 0.25 h, 1 μM ([4]; human liver microsomes) was 91.8%. It also gave a remaining at 0.5 h, 1 μM ([4]; human liver microsomes) of 91.6%, a remaining at 1 h, 1 μM ([4]; human liver microsomes) of 81.1% and a remaining at 2 h, 1 μM ([4]; human liver microsomes) of 59.2%. For the same compound, the half-life at 1 μM ([4]; liver microsomes) was 162 min, the “Blood glucose 15 min” value [5] was 9.32 mmol/L and the “Blood glucose 30 min” value [5] was 7.73 mmol/L. The “Blood glucose 45 min” value [5] was 6.87 mmol/L, the “Blood glucose 60 min” value [5] was 6.08 mmol/L and the “Blood glucose 60 min” value [6] was 7.00 mmol/L. The “Blood glucose 75 min” value [6] was 9.52 mmol/L, the “Blood glucose 90 min” value [6] was 8.43 mmol/L and the “Blood glucose 105 min” value [6] was 7.47 mmol/L. For the same compound, the solubility at 5 min [7] was greater than 3750 µg/mL, the “Percentage residues 0 min” value ([8]; With NADPH) was 100.0% and the “Percentage residues 0 min” value ([8]; Without NADPH) was 100.0%. The “Percentage residues 15 min” value ([8]; Without NADPH) was 73.24%, the “Percentage residues 30 min” value ([8]; Without NADPH) was 55.17% and the “Percentage residues 60 min” value ([8]; Without NADPH) was 33.12%. For the same compound, the “Percentage residues 120 min” value ([8]; Without NADPH) was 19.74%, the T½ ([8]; Without NADPH, 1 μM) was 51.98 min and the remaining at 0.25 h, 1 μM ([9]; human kidney microsomes) was 63.5%. It also gave a remaining at 0.5 h, 1 μM ([9]; human kidney microsomes) of 52.9%, a remaining at 1 h, 1 μM ([9]; human kidney microsomes) of 36.6% and a remaining at 2 h, 1 μM ([9]; human kidney microsomes) of 17.7%. It also gave a half-life at 1 μM ([9]; kidney microsomes) of 51.3 min, an AUClast/D ([10]; male SD rats, single SC injection, Dasiglucagon 5 mg/kg, 40 5.06 mg/kg) of 260 h·ng/mL per mg/kg and a Tmax ([10]; male, SD, rat, sc) of 10 min. The half-life ([10]; male, SD, rat, sc, male SD rats, single SC injection, Dasiglucagon 5 mg/kg, 40 5.06 mg/kg) was 30.6 min and the bioavailability ([10]; male, SD, rat, sc, read-out: Bioavailability (F %)) was 84.6%.

With `CC[C@H](C)[C@H](NC(=O)[C@H](CC(=O)O)NC(=O)[C@H](CC(C)C)NC(=O)[C@H](Cc1ccc(O)cc1)NC(=O)[C@H](CCCCN)NC(=O)[C@H](CO)NC(=O)[C@H](Cc1ccc(O)cc1)NC(=O)[C@H](CC(=O)O)NC(=O)[C@H](CO)NC(=O)[C@@H](NC(=O)[C@H](Cc1ccccc1)NC(=O)[C@@H](NC(=O)CNC(=O)[C@H](CCC(N)=O)NC(=O)[C@H](CO)NC(=O)[C@@H](N)Cc1c[nH]cn1)[C@@H](C)O)[C@@H](C)O)C(=O)NC(C)(C)C(=O)N[C@@H](CCCNC(=N)N)C(=O)N[C@@H](C)C(=O)N[C@@H](CCC(N)=O)C(=O)N[C@@H](CCC(=O)O)C(=O)N[C@@H](Cc1ccccc1)C(=O)N[C@H](C(=O)N[C@@H](CCC(N)=O)C(=O)N[C@@H](Cc1c[nH]c2ccccc12)C(=O)N[C@@H](CC(C)C)C(=O)N[C@@H](CCC(=O)O)C(=O)N[C@@H](CO)C(=O)N[C@H](C(=O)O)[C@@H](C)O)C(C)C` [Compound 42] (H-HSQGTFTSDYSKYLDI[Aib]RAQEFVQWLEST-OH) the EC50 ([11]; CHO-K1/GIPR cell line, cAMP) was greater than 100 nM, the “GIPR % Activity relative to native GIP” value ([11]; relative to native GIP) was less than 0.0700% and the Relative activity [12] was 207%. For the same compound, the solubility at 5 min [7] was greater than 2490 µg/mL and the “GLP-1R % Activity relative to native GLP-1” value [13] was 0.291%.
